Test results from ChEMBL document CHEMBL1140004, “2-Arylimino-5,6-dihydro-4H-1,3-thiazines as a new class of cannabinoid receptor agonists. Part 1: discovery of CB2 receptor selective compounds” (Bioorg Med Chem Lett, 2007).
pIC50, pKi: −log10 of the molar value. Active and inactive are the calls of the source. The rule behind the calls is not given here.

What was measured:
Cannabinoid receptor 2 [1] = molecular target: T1, Cannabinoid receptor 2 (Homo sapiens, UniProt P34972); assay: Displacement of [3H]CP-55940 from human CB2 receptor
T1 sequence (P34972 whole entry): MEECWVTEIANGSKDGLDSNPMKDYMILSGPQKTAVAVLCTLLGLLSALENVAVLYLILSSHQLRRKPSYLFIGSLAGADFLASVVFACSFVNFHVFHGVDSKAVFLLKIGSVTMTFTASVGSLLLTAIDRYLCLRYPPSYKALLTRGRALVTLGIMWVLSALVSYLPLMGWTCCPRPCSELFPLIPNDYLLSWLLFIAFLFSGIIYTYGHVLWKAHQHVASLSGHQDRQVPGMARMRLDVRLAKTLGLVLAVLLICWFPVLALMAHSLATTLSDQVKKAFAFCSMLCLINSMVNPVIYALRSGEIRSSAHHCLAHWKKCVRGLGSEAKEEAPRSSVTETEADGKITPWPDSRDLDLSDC

Cannabinoid receptor 2 [2] = molecular target: Cannabinoid receptor 2 (Mus musculus, UniProt P47936); assay: Displacement of [3H]CP-55940 from mouse CB2 receptor
Sequence of Cannabinoid receptor 2 (Mus musculus, UniProt P47936) (P47936 whole entry): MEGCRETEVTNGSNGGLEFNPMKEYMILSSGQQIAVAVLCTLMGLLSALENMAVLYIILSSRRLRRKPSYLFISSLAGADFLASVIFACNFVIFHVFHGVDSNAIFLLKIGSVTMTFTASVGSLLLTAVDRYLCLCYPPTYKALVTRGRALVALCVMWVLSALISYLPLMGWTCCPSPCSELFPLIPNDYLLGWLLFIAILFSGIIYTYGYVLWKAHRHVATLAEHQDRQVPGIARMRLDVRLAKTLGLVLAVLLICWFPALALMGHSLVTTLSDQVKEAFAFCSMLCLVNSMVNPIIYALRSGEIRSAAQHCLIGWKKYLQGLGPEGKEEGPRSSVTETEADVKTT

Cannabinoid receptor 1 [3] = molecular target: Cannabinoid receptor 1 (Mus musculus, UniProt P47746); assay: Displacement of [3H]CP-55940 from mouse CB1 receptor
Sequence of Cannabinoid receptor 1 (Mus musculus, UniProt P47746) (P47746 whole entry): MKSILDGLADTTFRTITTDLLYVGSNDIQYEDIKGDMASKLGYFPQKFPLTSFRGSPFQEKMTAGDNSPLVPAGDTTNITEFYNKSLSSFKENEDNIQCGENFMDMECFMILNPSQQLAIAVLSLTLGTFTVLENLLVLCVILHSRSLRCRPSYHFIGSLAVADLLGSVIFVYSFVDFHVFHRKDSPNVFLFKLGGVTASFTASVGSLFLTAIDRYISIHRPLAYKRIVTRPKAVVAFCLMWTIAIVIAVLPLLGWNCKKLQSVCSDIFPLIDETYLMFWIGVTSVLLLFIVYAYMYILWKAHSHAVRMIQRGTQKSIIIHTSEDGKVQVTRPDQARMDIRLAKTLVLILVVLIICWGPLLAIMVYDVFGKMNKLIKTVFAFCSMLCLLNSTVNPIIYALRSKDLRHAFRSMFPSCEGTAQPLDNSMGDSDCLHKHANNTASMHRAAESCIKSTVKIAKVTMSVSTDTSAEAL

Cannabinoid receptor 2 [4] = molecular target: T1, Cannabinoid receptor 2; assay: Agonist activity at human CB2 in CHO cells assessed as inhibition of cAMP production; type: functional, cell-based
Cannabinoid receptor 1 [5] = molecular target: T2, Cannabinoid receptor 1 (Homo sapiens, UniProt P21554); assay: Displacement of [3H]CP-55940 from human CB1 receptor
T2 sequence (P21554 whole entry): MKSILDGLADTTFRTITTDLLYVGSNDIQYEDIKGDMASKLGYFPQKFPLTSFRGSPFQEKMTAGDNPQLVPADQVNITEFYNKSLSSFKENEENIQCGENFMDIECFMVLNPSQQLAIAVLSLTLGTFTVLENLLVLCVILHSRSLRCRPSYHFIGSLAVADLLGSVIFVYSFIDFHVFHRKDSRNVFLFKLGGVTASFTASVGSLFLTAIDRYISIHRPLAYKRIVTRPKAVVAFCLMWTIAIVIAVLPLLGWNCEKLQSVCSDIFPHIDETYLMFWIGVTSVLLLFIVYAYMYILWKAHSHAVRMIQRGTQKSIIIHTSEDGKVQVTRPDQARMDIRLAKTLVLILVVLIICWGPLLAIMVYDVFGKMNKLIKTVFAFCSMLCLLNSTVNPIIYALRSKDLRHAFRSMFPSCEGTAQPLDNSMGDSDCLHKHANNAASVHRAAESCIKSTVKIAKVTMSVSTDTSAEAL

Cannabinoid receptor 1 [6] = molecular target: T2, Cannabinoid receptor 1; assay: Agonist activity at human CB1 in CHO cells assessed as inhibition of cAMP production; type: functional, cell-based
[7] = Half life in rat at 2 mg/kg, iv or 30 mg/kg, po; type: ADME, organism-based; conditions: in vivo
Mus musculus [8] = assay: Analgesic activity in sc dosed ICR mouse right hind paw of assessed as formalin induced licking; type: functional, organism-based
[9] = Bioavailability in rat at 30 mg/kg, po; type: ADME, organism-based; conditions: in vivo
[10] = AUC in rat at 30 mg/kg, po; type: ADME, organism-based; design: dose 30 mg/kg, route oral; conditions: plasma
[11] = Clearance in rat at 2 mg/kg, iv or 30 mg/kg, po; type: ADME, organism-based; conditions: in vivo
Mus musculus [12] = assay: Analgesic activity in sc dosed ICR mouse right hind paw in presence of SR-144528 assessed as inhibition of formalin induced licking; type: functional, organism-based

SMILES | pKi (Cannabinoid receptor 2 [1]) | other results
CSC(=S)N1CC(C)(C)CS/C1=N\c1ccccc1-c1ccccc1 | 6.00 | 
CCc1ccccc1/N=C1\SCC(C)(C)CN1C(=S)SC | 7.27 | 
CSC(=S)N1CC(C)(C)CS/C1=N\c1ccccc1C | 6.69 | 
CCCN1CC(C)(C)CS/C1=N\c1ccccc1C(C)C | 6.04 | 
CSC(=S)N1CC(C)(C)CS/C1=N\c1ccccc1F | 6.60 | 
CSC(=S)N1CC(C)(C)CS/C1=N\c1ccccc1C(C)(C)C | 6.50 | 
CCNC(=O)N1CC(C)(C)CS/C1=N\c1ccccc1C(C)C | < 5.30 | 
COc1ccccc1/N=C1\SCC(C)(C)CN1C(=S)SC | 7.74 | 
CCNC(=S)N1CC(C)(C)CS/C1=N\c1ccccc1C(C)C | < 5.30 | 
CCN1CC(C)(C)CS/C1=N\c1ccccc1C(C)C | 5.31 | 
CCC(=O)N1CC(C)(C)CS/C1=N\c1ccccc1C(C)C | 5.68 | 
CSC(=S)N1CC(C)(C)CS/C1=N\c1ccccc1C(F)(F)F | 6.85 | 
CCCc1ccccc1/N=C1\SCC(C)(C)CN1C(=S)SC | 7.24 | 
CC(C)c1ccccc1/N=C1\SCC(C)(C)CN1Cc1ccccc1 | 5.87 | 
CCOc1ccccc1/N=C1\SCC(C)(C)CN1C(=S)SC | 7.08 | 
CSC(=S)N1CCC(C)S/C1=N\c1ccccc1C(C)C (stereo unspecified) | < 5.30 | 
Cc1c(C(=O)c2cccc3ccccc23)c2cccc3c2n1[C@H](CN1CCOCC1)CO3 [WIN-552122] |  | pKi (Cannabinoid receptor 2 [2]): 8.22
CSC(=S)N1CC(C)(C)CS/C1=N\c1ccccc1Cl | 6.14 | 

SMILES | pKi (Cannabinoid receptor 2 [1]) | other results
CSC(=S)N1/C(=N/c2ccccc2C(C)C)SCCC1C (stereo unspecified) | < 5.30 | 
CSC(=S)N1CC(C)(C)CS/C1=N\c1cccc(C(C)C)c1 | 7.48 | 
CSC(=S)N1CCCS/C1=N\c1ccccc1C(C)C | 5.80 | 
CCCSC(=S)N1CC(C)(C)CS/C1=N\c1ccccc1C(C)C | 6.92 | 
CCOC(=O)N1CC(C)(C)CS/C1=N\c1ccccc1C(C)C | 6.37 | pKi (Cannabinoid receptor 1 [3]): < 5.30; pIC50 (Cannabinoid receptor 2 [4]): 6.49; pKi (Cannabinoid receptor 1 [5]): < 5.30; pIC50 (Cannabinoid receptor 1 [6]): < 5.30; pKi (Cannabinoid receptor 2 [2]): 6.73
CSC(=S)N1CC(C)(C)CS/C1=N\c1ccccc1Oc1ccccc1 | 5.53 | 
CSC(=S)N1CC(C)(C)CS/C1=N\c1ccc(C(C)C)cc1 | 7.66 | 
CSC(=S)N1CC(C)(C)CS/C1=N\c1ccccc1Br | 6.43 | 
CCOC(=S)N1CC(C)(C)CS/C1=N\c1ccccc1C(C)C | 6.64 | 
CC(C)SC(=S)N1CC(C)(C)CS/C1=N\c1ccccc1C(C)C | 6.56 | 
CC(C)c1ccccc1/N=C1/NCC(C)(C)CS1 | < 5.30 | 
CSC(=S)N1CC(C)CS/C1=N\c1ccccc1C(C)C (stereo unspecified) | 7.01 | 
CSC(=S)N1CC(C)(C)CS/C1=N\c1ccccc1 | 6.50 | 
CSC(=S)N1CC(C)(C)CS/C1=N\c1ccccc1C(C)C | 8.05 | pKi (Cannabinoid receptor 1 [3]): 5.69; half-life [7]: 36 min; Activity (Mus musculus [8]): Active; bioavailability [9]: 18%; AUC [10]: 1100 ng·h/mL; clearance [11]: 83.3 mL/min/kg; pIC50 (Cannabinoid receptor 2 [4]): 8.21; Activity (Mus musculus [12]): inactive; pKi (Cannabinoid receptor 1 [5]): < 5.30; pIC50 (Cannabinoid receptor 1 [6]): < 5.30; pKi (Cannabinoid receptor 2 [2]): 8.05
CCSC(=O)N1CC(C)(C)CS/C1=N\c1ccccc1C(C)C | 7.32 | 
CCSC(=S)N1CC(C)(C)CS/C1=N\c1ccccc1C(C)C | 7.46 | 
CSC(=S)N1CC(C)(C)CS/C1=N\c1c(C)cccc1C | < 5.30 | 
